From patent US11219623B2, “Inflammasome inhibition for the treatment of Parkinson's disease, Alzheimer's disease and multiple sclerosis” (University of Kentucky Research Foundation, priority 2015, dated 2022)
“Also recorded” adds a separate entry of the source.

Experiments:
[1] = tested on: wild-type mice; experiment: pAlu-induced RPE degeneration, mouse model of dry AMD; type: in vivo; conditions: daily oral administration
Protocol: Mouse studies were conducted to study treatment with NRTIs or derivatives.

[2] = tested on: mitochondrial reactive oxygen species (mtROS); experiment: Mitochondrial ROS caused by Alu expression, MitoSox assay, primary human RPE cells; type: cell-based
Protocol: After 15 hours cells were co-stained for mtROS (red) and for cell count, nuclei (blue; Hoechst DNA stain).
In FIG. 54, mitochondrial reactive oxygen species (ROS) were visualized with MitoSox (Red) and cell nuclei with Hoechst (Blue).

[3] = tested on: Caspase-1; experiment: Alu RNA-induced Caspase-1 activation, western blot, primary human RPE cells; type: cell-based
From the text: The bottom row in FIG. 5 is a vinculin loading control.

[4] = tested on: IRAK4; experiment: Alu RNA-induced IRAK4 phosphorylation, primary human RPE cells
[5] = tested on: GFP-expressing lentivirus; experiment: GFP-expressing lentivirus transduction/replication assay in HeLa cells; type: cell-based
Protocol: All drugs were added at a concentration of 10 μM. Cells were imaged for GFP expression 72 hours after addition of lentivirus. GFP-positive cells per field of view were recorded. n=4-11, error bars S.E.M. Reverse transcription of lentivirus is essential for GFP expression; modified NRTIs should not block reverse transcriptase, whereas NRTIs are known to block reverse transcriptase.
(§1) The present disclosure further provides the results of additional experiments in FIG. 21-FIG. 23.

[6] = LogP, partition coefficient in 1-octanol; type: physicochemical; conditions: 1-octanol partition
[7] = tested on: Caspase-1; experiment: LPS/ATP-induced Casp-1 activation, primary human RPE cells; type: cell-based; conditions: 25/100 uM
From the text: (§2) The loading control in FIG. 8 is vinculin. Furthermore, as shown, LPS and ATP activate the NLRP3 inflammasome only in combination, thus treatment with one or the other alone is useful as a control for this experiment.

[8] = tested on: Caspase-1; experiment: Nigericin-induced Caspase-1 activation, mouse bone marrow-derived macrophages; type: cell-based; conditions: 100, 250 uM
[9] = tested on: mtDNA; experiment: mtDNA levels, real-time quantitative PCR, primary mouse RPE cells; type: cell-based; conditions: normalized to chromosomal DNA, n=4
From the text: as §1

[10] = tested on: Caspase-1; experiment: iGLuc luminescence assay of ATP-induced Caspase-1 activation in J774 iGLuc cells; type: cell-based, mouse
Protocol: Caspase-1 is the enzyme at the core of the inflammasome complex and is an important danger response signal and mediator of RPE cell death in AMD. […] Importantly, there was some difference between individual compounds in terms of the dose response curve, emphasizing the need to test each compound (with unique R group(s)) individually.
To obtain the data set forth in FIGS. 64-73, an iGLuc assay was conducted (modified from Bartok et al. iGLuc: a luciferase-based inflammasome and protease activity reporter. Nature Methods 2013; 10(2):147-54). Briefly, 100,000 iGLuc cells per well were plated in a 96 well plate overnight. The next morning, media is aspirated from the plate and replaced with 75 μL of serum free DMEM with drugs (NRTIs or modified NRTIs) for 30 min. After 30 minutes of drug exposure, 20 mM ATP (25 μL) is added for a final concentration of 5 mM. 50 μL of media from each well is collected and 50 μL of coelenterazine 4.4 μM is added to each sample, and luminescence is read immediately.

[11] = tested on: IL-1 beta; experiment: MSU-induced IL-1 beta secretion from PMA-differentiated THP-1 monocytes, ELISA; type: cell-based, human; conditions: 25-1000 uM
From the text: Human THP-1 monocytes were differentiated into macrophages with PMA.
To illustrate this, human THP-1 monocytes were differentiated into macrophages with PMA. Treatment with MSU increased IL-1 beta secretion compared to non-treated cells. […]

[12] = tested on: mice; experiment: Iron-induced RPE degeneration in mice; type: in vivo, mouse; conditions: intraperitoneal 25 mg/kg days 1 to 6; read day 7
[13] = tested on: NLRP3 mRNA; experiment: NLRP3 priming (mRNA) induced by Alu RNA, primary human RPE cells; type: cell-based; conditions: 100 uM; 16 hours; normalized to 18S RNA
Protocol: Indeed, as provided in the bar graph of FIG. 13, Alu RNA transfection increases NLRP3 mRNA levels in primary human RPE cells at 16 hours, an event termed “priming” (Y-axis) compared to mock (transfection reagent alone).

[14] = tested on: IRAK4; experiment: LPS/ATP-induced IRAK4 phosphorylation, primary human RPE cells; type: cell-based; conditions: 25/100 uM
From the text: as §2

[15] = tested on: IL-1 beta; experiment: LPS/ATP-induced IL-1 beta secretion, mouse bone marrow-derived macrophages; type: cell-based; conditions: primary mouse bone marrow-derived macrophages
From the text: To determine whether LPS/ATP-induced inflammasome activation can be inhibited without RT inhibition, the present inventors utilized thymidine kinase-deficient (Raji/TK^−) and -expressing (Raji/TK^+) cells (Balzarini et al., 1989).

[16] = tested on: IL-1 beta mRNA; experiment: IL-1beta priming (mRNA) induced by Alu RNA, primary human RPE cells; type: cell-based; conditions: 100 uM; 24 hours; normalized to 18S RNA
Protocol: FIG. 14 illustrates that Alu RNA transfection increases IL-1 beta mRNA levels in primary human RPE cells at 24 hours, an event termed “priming”, (Y-axis) compared to mock (transfection reagent alone).

[17] = molecular target: T1, mouse P2X7 receptor (Mus musculus, UniProt Q9Z1M0); experiment: P2X7 cation channel function, patch clamp, HEK293 cells expressing mouse P2X7; type: cell-based; conditions: mouse P2X7 in HEK293
T1 construct: expressed in transfected cells; host or cells: HEK293 cells
T1 sequence (Q9Z1M0 whole entry): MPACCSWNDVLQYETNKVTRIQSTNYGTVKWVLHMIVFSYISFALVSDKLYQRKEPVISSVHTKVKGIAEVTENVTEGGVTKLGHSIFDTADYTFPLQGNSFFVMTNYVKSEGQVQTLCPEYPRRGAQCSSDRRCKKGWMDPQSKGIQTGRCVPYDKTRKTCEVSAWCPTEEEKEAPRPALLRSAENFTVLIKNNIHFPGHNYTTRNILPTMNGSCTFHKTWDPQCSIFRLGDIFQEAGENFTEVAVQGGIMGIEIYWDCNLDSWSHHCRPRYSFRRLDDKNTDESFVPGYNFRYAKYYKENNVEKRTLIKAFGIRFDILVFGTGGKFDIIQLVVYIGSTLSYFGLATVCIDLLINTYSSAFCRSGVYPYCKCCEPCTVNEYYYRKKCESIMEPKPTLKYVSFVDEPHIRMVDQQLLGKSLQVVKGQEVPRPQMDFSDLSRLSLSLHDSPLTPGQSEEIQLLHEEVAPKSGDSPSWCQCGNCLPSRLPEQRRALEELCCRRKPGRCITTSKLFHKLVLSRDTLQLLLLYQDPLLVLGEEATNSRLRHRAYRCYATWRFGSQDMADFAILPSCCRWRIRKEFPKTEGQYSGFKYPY

[18] = tested on: wild-type mice; experiment: Alu RNA-induced RPE degeneration, mouse model of dry AMD; conditions: co-delivered to the vitreous humor; one week after delivery
[19] = molecular target: T2, rat P2X7 receptor (Rattus norvegicus, UniProt Q64663); experiment: P2X7 cation channel function, patch clamp, HEK293 cells expressing rat P2X7; type: cell-based; conditions: rat P2X7 in HEK293
T2 construct: expressed in transfected cells; host or cells: HEK293 cells
T2 sequence (Q64663 whole entry): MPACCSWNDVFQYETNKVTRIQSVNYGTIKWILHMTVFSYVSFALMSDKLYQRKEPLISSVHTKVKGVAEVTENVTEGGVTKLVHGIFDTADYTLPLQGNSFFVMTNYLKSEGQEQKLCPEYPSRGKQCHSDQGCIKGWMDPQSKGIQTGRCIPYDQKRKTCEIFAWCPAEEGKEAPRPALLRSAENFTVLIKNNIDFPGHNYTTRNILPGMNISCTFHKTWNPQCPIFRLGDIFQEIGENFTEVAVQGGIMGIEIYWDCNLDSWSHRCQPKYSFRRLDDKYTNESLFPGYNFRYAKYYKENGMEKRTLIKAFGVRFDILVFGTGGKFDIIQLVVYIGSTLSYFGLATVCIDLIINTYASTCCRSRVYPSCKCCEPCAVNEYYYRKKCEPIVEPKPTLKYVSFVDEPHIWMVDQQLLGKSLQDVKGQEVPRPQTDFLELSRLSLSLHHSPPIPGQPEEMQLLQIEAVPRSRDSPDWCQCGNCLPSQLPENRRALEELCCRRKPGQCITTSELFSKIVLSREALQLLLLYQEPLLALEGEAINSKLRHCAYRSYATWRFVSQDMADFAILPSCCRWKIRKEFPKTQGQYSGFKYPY

[20] = tested on: human LINE-1 retrotransposon; experiment: EGFP cell culture L1 retrotransposition assay in HeLa cells; type: cell-based; conditions: 7 days after transfection, flow cytometry
Protocol: These findings pave way for the rational re-design and improvement of nucleoside analogs as novel therapeutics. The enhanced green fluorescent protein (EGFP) cell culture L1 retrotransposition assay was performed in HeLa cells. […] Transfected cells were selected in puromycin. 7 days after transfection, cells that underwent retrotransposition (EGFP-positive) were assayed by flow cytometry. Cells were gated based on background fluorescence of plasmid JM111, which has two point mutations in L1-ORF1 that abolish retrotransposition. Data are normalized with RPS set to 1.

[21] = tested on: Caspase-1; experiment: Alu RNA-induced Caspase-1 activation, primary mouse RPE cells; type: cell-based
[22] = tested on: Caspase-1; experiment: LPS/ATP-induced Caspase-1 activation, mouse bone marrow-derived macrophages, western blot

Cc1cn([C@H]2C=C[C@@H](CO)O2)c(=O)[nH]c1=O [d4T, 2′3′ dideoxythymidine]
pAlu-induced RPE degeneration [1]: blocked RPE degeneration | mitochondrial ROS caused by Alu expression (pAluA) [2]: reduces mitochondrial ROS; also recorded: prevents pAlu-induced mitochondrial ROS generation | Alu RNA-induced Caspase-1 maturation ([3]; 100 uM, 24 hours after Alu administration): blocked | Alu RNA-induced Caspase-1 activation/cleavage ([3]; concentration not given): prevents Caspase 1 cleavage | IRAK4 phosphorylation induced by Alu RNA [4]: blocks phosphorylation of IRAK4 | lentivirus replication (GFP-positive cells per field) ([5]; 10 μM, 72 hours, MOI 20): blocked lentivirus GFP expression | replication of GFP-expressing lentivirus ([5]; FIG. 22, concentration not given): blocks replication | logP [6]: -0.23 | Casp-1 activation induced by LPS/ATP [7]: blocks Casp-1 activation | Caspase-1 activation (active p20 band) induced by nigericin [8]: inhibits | mtDNA levels [9]: reduces mtDNA levels | Caspase-1 cleavage (luminescence) ([10]; ATP 5 mM, drug 1 nM-100 μM, N=3): reduces Caspase-1 cleavage in a dose-dependent fashion | reduction of inflammasome activation ([10]; ATP (5 mM), mouse J774 iGLuc cells, FIGS. 70-73): about 35% | IL-1beta secretion induced by MSU [11]: did not significantly affect IL-1beta secretion | Iron-induced RPE degeneration [12]: blocked the development of RPE degeneration | NLRP3 mRNA levels (priming) induced by Alu RNA [13]: reduces NLRP3 priming | IRAK4 phosphorylation induced by LPS/ATP [14]: blocks | secretion of mature IL-1 beta upon LPS/ATP [15]: blocks secretion of mature IL-1 beta | IL-1 beta mRNA levels (priming) induced by Alu RNA [16]: reduces IL-1beta priming | P2X7 cation channel function [17]: did not significantly modulate P2X7 cation channel function | Alu RNA-induced RPE cell death [18]: prevents Alu RNA-induced RPE cell death in a dose-dependent manner | P2X7 cation channel function [19]: did not significantly modulate P2X7 cation channel function | L1 retrotransposition (EGFP-positive cells) [20]: blocked L1 retrotransposition | Caspase 1 cleavage to active 20 kDa form induced by Alu RNA [21]: prevents Caspase 1 cleavage | Caspase-1 activation (active p20 band) induced by LPS/ATP ([22]; 100 uM, cell culture supernatants): inhibit Caspase-1 activation | LPS/ATP-induced Caspase-1 maturation ([22]; concentration not given): inhibited LPS/ATP-induced Caspase-1 maturation
